From patent EP3227262B1, “SULFIDE ALKYL AND PYRIDYL REVERSE SULFONAMIDE COMPOUNDS FOR HBV TREATMENT” (Novira Therapeutics Inc., priority 2014, dated 2016)

How the values were obtained:
HBV [1] = test: Inhibition of HBV replication dot-blot assay in HBV-producing hepatoma cell line; type: cell-based; settings: Hepatitis B virus, 144 h; activity in Dot-Blot assay; HepG2-2.2.15 cells; reduction in HBV DNA levels, six days
In short: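 HepG2-2.2.15 confluent monolayers were exposed to a compound dilution series for six days, with medium and compound renewed at day 3. HBV DNA in supernatant/lysate was quantified by dot-blot hybridization, and EC50 was derived from dose-response reduction in HBV DNA.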

HBV [2] = test: HBV replication inhibition assay (encapsidated HBV DNA in supernatant, bDNA QuantiGene); type: cell-based; settings: Hepatitis B virus, 144 h, HepG2.2.15 cells, supernatant at day 6, read-out: Extra HBV DNA

SMILES | EC50 (HBV [1]) [nM] | EC50 (HBV [2]) [nM]
O=C(Nc1cc(F)c(F)c(F)c1)c1ccc(F)c(SC2CCC(O)CC2)c1 (mixture of isomers) [Compound 10, (cis/trans)-4-Fluoro-3-((4-hydroxycyclohexyl)thio)-N-(3,4,5-trifluorophenyl)benzamide] | < 10000 | 90
CC(O)CCSc1cc(C(=O)Nc2cc(F)c(F)c(F)c2)ccc1F (racemic) [Compound 18, (±)-4-Fluoro-3-((3-hydroxybutyl)thio)-N-(3,4,5-trifluorophenyl)benzamide] | < 10000 | 570
O=C(Nc1ccc(F)c(Cl)c1)c1ccnc(NS(=O)(=O)C2CCC(O)C2)c1 (racemic) [Compound 186, (±)-N-(3-Chloro-4-fluorophenyl)-2-(3-hydroxycyclopentanesulfonamido)isonicotinamide] | < 10000 | 2700
O=C(Nc1ccc(F)c(Cl)c1)c1ccc(F)c(SC2CCC(O)CC2)c1 (mixture of isomers) [Compound 24, (cis/trans)-N-(3-Chloro-4-fluorophenyl)-4-fluoro-3-((4-hydroxycyclohexyl)thio)benzamide] | < 10000 | 42
O=C(Nc1ccc(F)c(Cl)c1)c1ccnc(NS(=O)(=O)C2CC2)c1 [Compound 124, N-(3-Chloro-4-fluorophenyl)-2-(cyclopropanesulfonamido)isonicotinamide] | < 10000 | 100
O=C(Nc1cc(F)c(F)c(F)c1)c1ccc(F)c(SC2CCCCC2)c1 [Compound 2, 3-(Cyclohexylthio)-4-fluoro-N-(3,4,5-trifluorophenyl)benzamide] | < 10000 | 138
O=C(Nc1ccc(F)c(Cl)c1)c1ccc(F)c(SCC2(CCO)CC2)c1 [Compound 32, N-(3-Chloro-4-fluorophenyl)-4-fluoro-3-(((1-(2-hydroxyethyl)cyclopropyl)methyl)thio)benzamide] | < 10000 | 410
CCc1ccc(CS(=O)(=O)Nc2cc(C(=O)Nc3ccc(F)c(Cl)c3)ccn2)cc1 [Compound 180, N-(3-Chloro-4-fluorophenyl)-2-((4-ethylphenyl)methylsulfonamido)isonicotinamide] | < 10000 | 300
CS(=O)(=O)NC(=O)C1C2CC(Sc3cc(C(=O)Nc4cc(F)c(F)c(F)c4)ccc3F)CC21 (mixture of isomers) [Compound 99, (cis/trans)-3-((2-Fluoro-5-((3,4,5-trifluorophenyl)carbamoyl)phenyl)thio)-N-(methylsulfonyl)bicyclo[3.1.0]hexane-6-carboxamide] | < 10000 | 4000
O=C(Nc1ccc(F)c(Cl)c1)c1cccc(SC2CCCC2)c1 [Compound 37, N-(3-Chloro-4-fluorophenyl)-3-(cyclopentylthio)benzamide] | < 10000 | 1070
O=C(Nc1cc(F)c(F)c(F)c1)c1ccc(F)c(SC2CCOCC2)c1 [Compound 4, 4-Fluoro-3-((tetrahydro-2H-pyran-4-yl)thio)-N-(3,4,5-trifluorophenyl)benzamide] | < 10000 | 220
O=C(Nc1cc(F)c(F)c(F)c1)c1ccc(F)c(SCC2(CCO)CC2)c1 [Compound 33, 4-Fluoro-3-(((1-(2-hydroxyethyl)cyclopropyl)methyl)thio)-N-(3,4,5-trifluorophenyl)benzamide] | < 10000 | 620
O=C(Nc1cc(F)c(F)c(F)c1)c1ccc(F)c(SC2CC3C(C2)C3C(=O)O)c1 (mixture of isomers) [Compound 98, (cis/trans)-3-((2-fluoro-5-((3,4,5-trifluorophenyl)carbamoyl)phenyl)thio)bicyclo[3.1.0]hexane-6-carboxylic acid] | < 10000 | 1300
O=C(Nc1cc(F)c(F)c(F)c1)c1ccc(F)c(SC2CCC(C(=O)O)CC2)c1 (mixture of isomers) [Compound 62, (cis/trans)-4-((2-Fluoro-5-((3,4,5-trifluorophenyl)carbamoyl)phenyl)thio)cyclohexanecarboxylic acid] | < 10000 | 710
